In patent US4055639A, “Derivatives of N-(2,2-dichlorovinyl) salicylamide and use thereof as bactericides, fungicides and algicides for industry” (Nippon Kayaku Kabushiki Kaisha, priority 1975, dated 1977):
In brackets after ≈: the same amount, converted by molar mass. Where a name gives a salt, the structure may show the parent alone. Read-outs that look alike come from different tables or passages of the source.

How the values were obtained:
Aspergillus niger = assay: minimum inhibitory concentration, potato-dextrose agar dilution method; format: cell-based; details: read-out: Minimum inhibitory amount (minimum inhibitory concentration, 100% control)
Text: (§1) Bactericidal activity and fungicidal activity of the active compounds of the present invention were examined by potato-dextrose agar dilution method, or [2] glucose bouillon medium dilution method. The results are shown in Table 2 below as the minimum inhibitory concentration (the minimum concentration of active compound found to produce 100% control of the test bacteria and fungi).

Cladosporium harbarum = assay: as above; format: cell-based; details: read-out: Minimum inhibitory amount (minimum inhibitory concentration, 100% control)
Text: as §1

Penicillium citrinum = assay: as above; format: cell-based; details: read-out: Minimum inhibitory amount (minimum inhibitory concentration, 100% control)
Text: as §1

Bacillus subtilis = assay: minimum inhibitory concentration, glucose bouillon medium dilution method; format: cell-based; details: read-out: Minimum inhibitory amount (minimum inhibitory concentration, 100% control)
Text: as §1

Escherichia coli = assay: as above; format: cell-based; details: read-out: Minimum inhibitory amount (minimum inhibitory concentration, 100% control)
Text: as §1

Staphylococcus aureus = assay: as above; format: cell-based; details: read-out: Minimum inhibitory amount (minimum inhibitory concentration, 100% control)
Text: as §1

fungi = assay: degree of propagation on slime test boards in Waxman's liquid medium; design: key: -: no propagation; +: the area of propagation is 1-25% on the slime test boards.; ++: the area of propagation is 26-50% on the slime test boards.; +++: the area of propagation is 51-75% on the slime test boards.; ++++: the area of propagation is 76-100% on the slime test boards; details: 0.02 part active compound (10% water soluble concentrate) in 100 parts medium, same method
Description: (§2) Zero point zero two (0.02) part of active compounds in the form of 10% water soluble concentrate which was prepared by Example 11 was added into 100 parts of Waxman's liquid medium. Pieces of wood and iron (hereafter referred to as the slime test boards) were soaked into the Waxman's liquid medium. The bacteria which were gathered from circular water system were inoculated upon the Waxman's liquid medim and incubated at 27°-34° C by shaking culture for 2 days. The degree of propagation of the bacteria on the slime test boards was examined.
(§3) The growth-inhibiting activity of active compounds against the fungi and the green algae was also examined by the same method as mentioned above.
(§4) The degree of propagation of the bacteria, fungi or green algae on the slime test boards is difined in term of the following symbols.

green algae = assay: as above; design: key: -: no propagation; +: the area of propagation is 1-25% on the slime test boards.; ++: the area of propagation is 26-50% on the slime test boards.; +++: the area of propagation is 51-75% on the slime test boards.; ++++: the area of propagation is 76-100% on the slime test boards; details: 0.02 part active compound (10% water soluble concentrate) in 100 parts medium, same method
Description: as §2, §3, §4

[1] = system: Bacteria, fungi and slime; assay: inhibition of bacteria, fungi and slime by water soluble concentrate in circular water systems, pastes or binding agents; details: 10-20 ppm in circular water systems; 0.01-0.1% in pastes or binding agents
Description: A water soluble concentrate was prepared as follows:
The above ingredients were mixed. A water soluble concentrate was obtained. A water soluble concentrate containing Compound No. 1, No. 2, No. 5, No. 8, No. 16, No. 19 or No. 22 was prepared by the same method as mentioned above.
Before application, the concentrate was diluted 500-1000 times with water and sprayed on the inside of cotes to prevent the growth of bacteria and fungi.
The solution was added to water in circular water systems to inhibit the growth of slime. The concentration of Compound No. 6 in the water was 10-20 ppm.
An amount of 0.01-0.1% of Compound No. 6 as the solution was added to pastes or binding agents to prevent rottenness of them.

[2] = Method (1) potato-dextrose agar dilution
[3] = Cladosporium harbarum, Method (1) potato-dextrose agar dilution
[4] = Method (2) glucose bouillon medium dilution

Compound | MIC (Aspergillus niger; [2]) | MIC (Cladosporium harbarum; [3]) | MIC (Penicillium citrinum; [2]) | MIC (Bacillus subtilis; [4]) | MIC (Escherichia coli; [4]) | MIC (Staphylococcus aureus; [4]) | inhibition of bacteria, fungi and slime [1] | Degree of propagation (fungi) | Degree of propagation (green algae) | MIC (Aspergillus niger) | MIC (Cladosporium harbarum; Cladosporium) | MIC (Penicillium citrinum) | MIC (Bacillus subtilis) | MIC (Escherichia coli) | MIC (Staphylococcus aureus)
O=C(NC=C(Cl)Cl)c1cc(Cl)ccc1O [Compound No. 1, N-(2',2'-dichlorovinyl)-5-chlorosalicylamide] | 10 mg/L (≈ 37.5 µM) | 5 mg/L (≈ 18.8 µM) | 10 mg/L (≈ 37.5 µM) | 5 mg/L (≈ 18.8 µM) | 60 mg/L (≈ 225 µM) | 5 mg/L (≈ 18.8 µM) |  | - | - |  |  |  |  |  | 
CC(=O)Oc1ccccc1C(=O)NC=C(Cl)Cl [Compound No. 2, O-acetyl-N-(2,2-dichlorovinyl) salicylamide] | 10 mg/L (≈ 36.5 µM) | 5 mg/L (≈ 18.2 µM) | 10 mg/L (≈ 36.5 µM) | 2.5 mg/L (≈ 9.12 µM) | 40 mg/L (≈ 146 µM) | 5 mg/L (≈ 18.2 µM) |  | - | - |  |  |  |  |  | 
COC(=O)Oc1ccccc1C(=O)NC=C(Cl)Cl [Compound No. 3, O-methoxycarbonyl-N-(2,2-dichlorovinyl) salicylamide] | 10 mg/L (≈ 34.5 µM) | 10 mg/L (≈ 34.5 µM) | 20 mg/L (≈ 68.9 µM) | 10 mg/L (≈ 34.5 µM) | 60 mg/L (≈ 207 µM) | 10 mg/L (≈ 34.5 µM) |  |  |  |  |  |  |  |  | 
CNC(=O)Oc1ccccc1C(=O)NC=C(Cl)Cl [Compound No. 4, O-(N'-methylcarbamoyl)-N-(2,2-dichlorovinyl) salicylamide] |  |  |  |  |  |  |  |  |  | 20 mg/L (≈ 69.2 µM) | 5 mg/L (≈ 17.3 µM) | 10 mg/L (≈ 34.6 µM) | 10 mg/L (≈ 34.6 µM) | 60 mg/L (≈ 208 µM) | 10 mg/L (≈ 34.6 µM)
CC(=O)Oc1ccc(Cl)cc1C(=O)NC=C(Cl)Cl [Compound No. 5, O-acetyl-N-(2',2'-dichlorovinyl)-5-chlorosalicylamide] | 2.5 mg/L (≈ 8.1 µM) | 2.5 mg/L (≈ 8.1 µM) | 2.5 mg/L (≈ 8.1 µM) | 1.3 mg/L (≈ 4.21 µM) | 10 mg/L (≈ 32.4 µM) | 1.3 mg/L (≈ 4.21 µM) |  | - | - |  |  |  |  |  | 
O=C(NC=C(Cl)Cl)c1cc(Cl)ccc1O [Compound No. 6, sodium salt of N-(2',2'-dichlorovinyl)-5-chlorosalicylamide] |  |  |  |  |  |  | inhibited for a long time |  |  |  |  |  |  |  | 
CCC(=O)Oc1ccccc1C(=O)NC=C(Cl)Cl [Compound No. 15] | 10 mg/L (≈ 34.7 µM) | 5 mg/L (≈ 17.4 µM) | 10 mg/L (≈ 34.7 µM) | 2.5 mg/L (≈ 8.68 µM) | 40 mg/L (≈ 139 µM) | 5 mg/L (≈ 17.4 µM) |  | - | - |  |  |  |  |  | 
Cc1cccc(C(=O)NC=C(Cl)Cl)c1O [compound 12] | 20 mg/L (≈ 81.3 µM) | 20 mg/L (≈ 81.3 µM) | 20 mg/L (≈ 81.3 µM) | 10 mg/L (≈ 40.6 µM) | 80 mg/L (≈ 325 µM) | 10 mg/L (≈ 40.6 µM) |  |  |  |  |  |  |  |  | 
O=C(NC=C(Cl)Cl)c1cc(Br)ccc1O [compound 13] | 20 mg/L (≈ 64.3 µM) | 10 mg/L (≈ 32.2 µM) | 10 mg/L (≈ 32.2 µM) | 5 mg/L (≈ 16.1 µM) | 60 mg/L (≈ 193 µM) | 5 mg/L (≈ 16.1 µM) |  |  |  |  |  |  |  |  | 
O=C(NC=C(Cl)Cl)c1cccc([N+](=O)[O-])c1O [compound 14] | 10 mg/L (≈ 36.1 µM) | 10 mg/L (≈ 36.1 µM) | 10 mg/L (≈ 36.1 µM) | 5 mg/L (≈ 18 µM) | 60 mg/L (≈ 217 µM) | 5 mg/L (≈ 18 µM) |  |  |  |  |  |  |  |  | 
CCCC(=O)Oc1ccccc1C(=O)NC=C(Cl)Cl [compound 16] | 10 mg/L (≈ 33.1 µM) | 5 mg/L (≈ 16.5 µM) | 10 mg/L (≈ 33.1 µM) | 5 mg/L (≈ 16.5 µM) | 60 mg/L (≈ 199 µM) | 10 mg/L (≈ 33.1 µM) |  | - |  |  |  |  |  |  | 

Second part, led by results:

MIC (Aspergillus niger; [2]) | MIC (Cladosporium harbarum; [3]) | MIC (Penicillium citrinum; [2]) | MIC (Bacillus subtilis; [4]) | MIC (Escherichia coli; [4]) | MIC (Staphylococcus aureus; [4]) | inhibition of bacteria, fungi and slime [1] | Compound | Degree of propagation (fungi) | Degree of propagation (green algae) | MIC (Aspergillus niger) | MIC (Cladosporium harbarum; Cladosporium) | MIC (Penicillium citrinum) | MIC (Bacillus subtilis) | MIC (Escherichia coli) | MIC (Staphylococcus aureus)
10 mg/L (≈ 33.1 µM) | 10 mg/L (≈ 33.1 µM) | 10 mg/L (≈ 33.1 µM) | 5 mg/L (≈ 16.5 µM) | 40 mg/L (≈ 132 µM) | 5 mg/L (≈ 16.5 µM) |  | CC(C)C(=O)Oc1ccccc1C(=O)NC=C(Cl)Cl [compound 17] |  |  |  |  |  |  |  | 
10 mg/L (≈ 32.4 µM) | 5 mg/L (≈ 16.2 µM) | 10 mg/L (≈ 32.4 µM) | 5 mg/L (≈ 16.2 µM) | 40 mg/L (≈ 130 µM) | 5 mg/L (≈ 16.2 µM) |  | O=C(CCl)Oc1ccccc1C(=O)NC=C(Cl)Cl [compound 19] | - | - |  |  |  |  |  | 
10 mg/L (≈ 29.2 µM) | 10 mg/L (≈ 29.2 µM) | 10 mg/L (≈ 29.2 µM) | 5 mg/L (≈ 14.6 µM) | 60 mg/L (≈ 175 µM) | 10 mg/L (≈ 29.2 µM) |  | O=C(NC=C(Cl)Cl)c1ccccc1OC(=O)C(Cl)Cl [compound 20] |  |  |  |  |  |  |  | 
10 mg/L (≈ 32.9 µM) | 10 mg/L (≈ 32.9 µM) | 10 mg/L (≈ 32.9 µM) | 5 mg/L (≈ 16.4 µM) | 40 mg/L (≈ 132 µM) | 2.5 mg/L (≈ 8.22 µM) |  | CCOC(=O)Oc1ccccc1C(=O)NC=C(Cl)Cl [compound 22] | + (the area of propagation is 1-25% on the slime test boards.) |  |  |  |  |  |  | 
10 mg/L (≈ 30.1 µM) | 10 mg/L (≈ 30.1 µM) | 10 mg/L (≈ 30.1 µM) | 5 mg/L (≈ 15.1 µM) | 40 mg/L (≈ 120 µM) | 5 mg/L (≈ 15.1 µM) |  | CC(C)COC(=O)Oc1ccccc1C(=O)NC=C(Cl)Cl [compound 23] |  |  |  |  |  |  |  | 
20 mg/L (≈ 81.3 µM) | 10 mg/L (≈ 40.6 µM) | 20 mg/L (≈ 81.3 µM) | 10 mg/L (≈ 40.6 µM) | 60 mg/L (≈ 244 µM) | 10 mg/L (≈ 40.6 µM) |  | COc1ccccc1C(=O)NC=C(Cl)Cl [compound 24] |  |  |  |  |  |  |  | 
10 mg/L (≈ 33.2 µM) | 5 mg/L (≈ 16.6 µM) | 10 mg/L (≈ 33.2 µM) | 5 mg/L (≈ 16.6 µM) | 40 mg/L (≈ 133 µM) | 5 mg/L (≈ 16.6 µM) |  | O=C(NC=C(Cl)Cl)c1cc(Cl)cc(Cl)c1O [compound 26] |  |  |  |  |  |  |  | 
10 mg/L (≈ 29.2 µM) | 5 mg/L (≈ 14.6 µM) | 5 mg/L (≈ 14.6 µM) | 2.5 mg/L (≈ 7.29 µM) | 40 mg/L (≈ 117 µM) | 2.5 mg/L (≈ 7.29 µM) |  | CC(=O)Oc1c(Cl)cc(Cl)cc1C(=O)NC=C(Cl)Cl [compound 27] |  |  |  |  |  |  |  | 
